{"source": "patent US20070110716A1", "about": "“Relationship of a specific metabolite to insulin resistance” (priority 2003, published 2007)", "key": {"[1]": {"system": "Akt", "experiment": "Insulin-stimulated phosphorylation of Akt in L6 myotubes exposed to high FA", "format": "cell-based, rat", "details": "24 h exposure to high FA", "protocol": "The model predicts that the development of insulin resistance requires FA uptake into muscle mitochondria and subsequent β-oxidation. To test this model, signaling experiments were performed in which mitochondrial FA metabolism was inhibited by carnitine deficiency or etomoxir."}, "[2]": {"system": "L6 myocytes", "experiment": "Acylcarnitine and ketone accumulation in L6 myocytes exposed to high FA", "format": "cell-based, rat", "details": "co-administration", "protocol": "Cell culture. Early passages of rat L6 myoblasts (ATCC CRL-1458) from the American Tissue Culture Collection (Rockville, Md.) were grown in Dulbecco's Modified Eagle Medium (DMEM) with 10% Fetal Bovine Serum, 4.0 mM glutamine, and […] gentamycin, in a humidified incubator at 37° C., 5% CO2. Myoblasts were grown on 100 mm dishes to 50-60% confluence and then subcultured onto 6 and 24-well collagen-coated plates for experiments. When cells were 70% confluent, they were induced to differentiate into myotubes by changing to low-serum DFM (DMEM, 2% horse-serum, 4.0 mM glutamine, […] gentamycin). […]\nSubstrate Metabolism. […] Briefly, the production of [^14C]-labeled [^14C]CO2 (complete oxidation) was measured and where appropriate, [^14C]-labeled ASM, a measure of TCA cycle intermediates and acylcarnitine esters and ketones (incomplete oxidation) was measured, using a modified 48-well microtiter plate (Kim, et al. (2002) Am. J. Physiol. Endocrinol. Metab. 282:E1014-El022). […] Radioactivity was determined by scintillation counting. […] Rates of ketone production were determined by treating media and tissue lysates with sodium borodeuteride, thereby producing ketoacids labeled with deuterium. Trimethylsilyated extracts spiked with internal standards were analyzed by GC/MS, permitting determination of βHB and AcAc in a single analysis. […]"}}, "data": [{"smiles": "C[N+](C)(C)CC(O)CC(=O)[O-]", "note": "(stereo not drawn) [carnitine]", "values": [{"measurement": "Lipid-induced insulin resistance (insulin-stimulated phosphorylation of Akt)", "setting": "[1]", "result": "exacerbated lipid-induced insulin resistance in a dose-dependent manner"}]}, {"smiles": "CCOC(=O)[C@@]1(CCCCCCOc2ccc(Cl)cc2)CO1", "note": "[etomoxir]", "values": [{"measurement": "Accumulation of lipid metabolites (acylcarnitines, βHB-carnitine, free ketones, C2)", "setting": "[2]", "result": "prevented"}, {"measurement": "Lipid-induced insulin resistance (insulin-stimulated phosphorylation of Akt)", "setting": "[1]", "result": "at least partly protected"}]}]}
